Test results from article PMC11395333, “The Bifunctional Dimer Caffeine-Indan Attenuates α-Synuclein Misfolding, Neurodegeneration and Behavioral Deficits after Chronic Stimulation of Adenosine A1 Receptors” (International Journal of Molecular Sciences, 2024).

Assays:
[1] = Ex vivo biodistribution in healthy CD-1 mice; settings: for Biodistribution, blood / Biodistribution, bone / Biodistribution, brain / Biodistribution, heart / Biodistribution, kidney / Biodistribution, large intestine / Biodistribution, liver / Biodistribution, lung / Biodistribution, small intestine / Biodistribution, spleen: tail vein injection
Protocol: (§1) The liver, pancreas, and brain were collected, washed with saline, placed in water/acetonitrile, and homogenized using the Fisherbrand™ 150 Handheld Homogenizer (Thermo Fisher Scientific, Waltham, MA, USA). The samples were centrifuged at 14,000 relative centrifugal force (rcf) for 5 min (AccuSpin Micro 17, Thermo Fisher Scientific, Waltham, MA, USA). The supernatants were collected and filtered using 0.22 μm organic Millipore-Sigma filters (Oakville, ON, Canada). The clarified filtrate was injected into the HPLC and radioanalytes separated by a reverse phase column (5 μm C18, 9.4 × 250 mm reverse phase column, PN-990967-202, flow rate 5.00 mL/min) using the same gradient elution as described in Table 1. The elution of radioactive metabolites was detected using the radiation detector as described above. […] The mice were euthanized (anesthesia followed by cervical dislocation followed by cardiac puncture and blood draw) at 5, 10, 20, 40, and 60 min p.i., and different organs were harvested (blood, liver, small intestine, kidney, spleen, lung, heart, large intestine, bone, and brain), washed and placed in pre-weighed tubes. The radioactivity in each organ/tissue was measured using a calibrated automatic gamma counter (2480 Perkin Elmer, Waltham MA, USA) and the tissue uptake was expressed as a percentage of injected dose (ID) per gram (% ID/g). All radioactivity measurements were corrected for decay. Data are shown as average mean± SEM, calculated using replication for each sample.

[2] = Micro-PET/CT dynamic imaging; format: in vivo, CD-1 mice
Protocol: The acquisition of dynamic PET data (10 × 10, 8 × 15, 6 × 20, 6 × 30, 4 × 60, 1 × 100, 4 × 100, 6 × 150, 4 × 300) was started immediately after radiotracer injection, followed by a 1 min CT scan. PET/CT images were registered and reconstructed automatically by the GNEXT system. PET images were reconstructed using a 3D-ordered Subset Expectation Maximization algorithm with 24 subsets and 3 iterations. CT images were reconstructed using a Modified Feldkamp algorithm. All data were analyzed using Vivoquant software (IviCRO) (InVicro, Needham, MA, USA). CT images were used to define anatomical regions of interest (ROIs) through PET/CT image co-registration. The quantification of activity concentration in the brain was performed by drawing ROIs and the mean and maximum standard uptake values (SUVs) were determined using the formula: SUV = [(MBq/mL) × (animal wt. (g))/injected dose (MBq)].

[3] = In vivo metabolic stability, radio-HPLC of tissue extracts; parameters: species or system CD-1 mice; settings: liver and pancreas extracts, 40 min p.i.
Protocol: as §1, with “The” for “The mice were euthanized (anesthesia followed by cervical dislocation followed by cardiac puncture and blood draw) at 5, 10, 20, 40, and 60 min p.i., and different organs were harvested (blood, liver, small intestine, kidney, spleen, lung, heart, large intestine, bone, and brain), washed and placed in pre-weighed tubes. The”

α-Syn = tested on: α-Syn; parameters: method as in PMID 35139916; settings: co-administration with CPA; cited from earlier work
[4] = parameters: method as in PMID 34187286; settings: cited from earlier work
[5] = extrapolated from unbound CLint in mouse liver microsomes, well-stirred model; cited from earlier work

## Cn1c(=O)c2c(nc(CCCCCCNC3CCc4ccccc43)n2CCC[18F])n(C)c1=O (stereo not drawn) [^18F–C8–6–I]
[1]; mouse, in vivo
  Defluorination in vivo (from bone uptake): little defluorination occurred in vivo
[1]; ratio of blood radioactivity
  blood5min/blood20min: 1.1
  blood5min/blood60min: 1.9
[1]; ratio of brain uptake
  brain5min/brain20min: 1.7
  brain5min/brain60min: 3.4
[1]; 5 min p.i.
  Biodistribution, blood: 0.76 ± 0.040 %ID/g
  Biodistribution, bone: 1.00 ± 0.18 %ID/g
  Biodistribution, brain: 0.17 ± 0.014 %ID/g
  Biodistribution, heart: 2.34 ± 0.26 %ID/g
  Biodistribution, kidney: 16.26 ± 1.82 %ID/g
  Biodistribution, large intestine: 2.98 ± 0.94 %ID/g
  Biodistribution, liver: 5.12 ± 1.65 %ID/g
  Biodistribution, lung: 7.03 ± 1.24 %ID/g
  Biodistribution, small intestine: 8.56 ± 2.02 %ID/g
  Biodistribution, spleen: 6.54 ± 0.88 %ID/g
[1]; 10 min p.i.
  Biodistribution, blood: 0.78 ± 0.14 %ID/g
  Biodistribution, bone: 1.24 ± 0.44 %ID/g
  Biodistribution, brain: 0.14 ± 0.027 %ID/g
  Biodistribution, heart: 1.77 ± 0.17 %ID/g
  Biodistribution, kidney: 11.86 ± 1.74 %ID/g
  Biodistribution, large intestine: 3.06 ± 0.73 %ID/g
  Biodistribution, liver: 6.91 ± 2.02 %ID/g
  Biodistribution, lung: 5.51 ± 0.44 %ID/g
  Biodistribution, small intestine: 11.18 ± 3.11 %ID/g
  Biodistribution, spleen: 5.49 ± 1.05 %ID/g
[1]; 20 min p.i.
  Biodistribution, blood: 0.67 ± 0.19 %ID/g
  Biodistribution, bone: 1.18 ± 0.005 %ID/g
  Biodistribution, brain: 0.10 ± 0.013 %ID/g
  Biodistribution, heart: 1.14 ± 0.040 %ID/g
  Biodistribution, kidney: 11.02 ± 0.48 %ID/g
  Biodistribution, large intestine: 2.83 ± 0.068 %ID/g
  Biodistribution, liver: 6.64 ± 1.44 %ID/g
  Biodistribution, lung: 5.52 ± 0.72 %ID/g
  Biodistribution, small intestine: 13.02 ± 1.24 %ID/g
  Biodistribution, spleen: 5.71 ± 0.69 %ID/g
[1]; 40 min p.i.
  Biodistribution, blood: 0.48 ± 0.029 %ID/g
  Biodistribution, bone: 1.04 ± 0.27 %ID/g
  Biodistribution, brain: 0.10 ± 0.011 %ID/g
  Biodistribution, heart: 1.01 ± 0.16 %ID/g
  Biodistribution, kidney: 8.65 ± 1.21 %ID/g
  Biodistribution, large intestine: 2.69 ± 0.26 %ID/g
  Biodistribution, liver: 4.76 ± 0.54 %ID/g
  Biodistribution, lung: 3.00 ± 1.40 %ID/g
  Biodistribution, small intestine: 9.35 ± 1.82 %ID/g
  Biodistribution, spleen: 5.80 ± 0.83 %ID/g
[1]; 60 min p.i.
  Biodistribution, blood: 0.39 ± 0.11 %ID/g
  Biodistribution, bone: 1.20 ± 0.34 %ID/g
  Biodistribution, brain: 0.05 ± 0.005 %ID/g
  Biodistribution, heart: 0.49 ± 0.018 %ID/g
  Biodistribution, kidney: 4.27 ± 0.37 %ID/g
  Biodistribution, large intestine: 2.50 ± 0.93 %ID/g
  Biodistribution, liver: 5.74 ± 1.12 %ID/g
  Biodistribution, lung: 1.42 ± 0.22 %ID/g
  Biodistribution, small intestine: 12.33 ± 0.81 %ID/g
  Biodistribution, spleen: 3.79 ± 0.33 %ID/g
[2]; after 50 min
  Standardized uptake value in the whole brain: 0.21 SUV
[2]; dynamic PET, tail vein injection
  Maximum standardized uptake value in the whole brain: 0.47 SUV
[3]
  Parent compound share of the radioactivity signal: ≥ 95%

## CCCn1c(=O)c2[nH]c(C3CCCC3)nc2n(CCC)c1=O [DPCPX]
α-Syn
  CPA-induced α-Syn aggregation and neurodegeneration: prevented the CPA-induced α-Syn aggregation and neurodegeneration

## Cn1c(=O)c2c(nc(CCCCCCNC3CCc4ccccc43)n2CCCF)n(C)c1=O (stereo not drawn) [^19F–C8–6–I]
[4]; 1 h incubation, human, mouse and rat liver microsomes
  Parent remaining in liver microsomes: significant percentage of the parent ^19F–C8–6–I remained
[4]; mouse, rat and human liver microsomes
  Defluorination in liver microsomes: No defluorination was observed
[5]
  Predicted in vivo clearance in mouse plasma, CLp: 2.16 L/h/kg

## NC1CCc2ccccc21 (stereo not drawn) [1-aminoindan]
α-Syn
  CPA-induced α-Syn aggregation and neurodegeneration: prevented the CPA-induced α-Syn aggregation and neurodegeneration
